Results reported in patent US4459290A, “C-23-Modified derivatives of OMT, pharmaceutical compositions and method of use” (priority 1982, dated 1984).
Converted amounts (≈) assume the structure as drawn. Like-named read-outs stand apart in the source and are kept apart here.

What was measured:
Format in all cases: cell-based
[1] = system: Pasteurella hemolytica 23C; assay: MIC, broth-dilution microtiter test (Table VII); settings: Pasteurella, P. hemolytica 23C, read-out: MIC
Method in brief: (§1)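 Growth inhibition in liquid medium, in a routine microtiter broth-dilution series, gave the MIC against staphylococci and pasteurellae; the gram-negative enteric strain was tested by conventional agar dilution instead.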

[2] = system: Pasteurella hemolytica 22C; assay: MIC, broth-dilution microtiter test (Table VII); settings: Pasteurella, P. hemolytica 22C, read-out: MIC
Method in brief: as §1

Streptococcus sp. 80 = assay: MIC, broth-dilution microtiter test (Table VII); settings: Streptococcus sp. 80; broth-dilution microtiter; read-out: MIC
Method: (§2) Especially noteworthy is the improved activity against gram-negative bacteria for several derivatives when compared to the activity of OMT. […] The MIC's in Tables V and VI were determined by standard agar-dilution assays. The MIC's in Table VII were obtained using a conventional broth-dilution microtiter test.

Mycoplasma synoviae = assay: MIC, broth-dilution microtiter test (Table VII); settings: Mycoplasmopsis synoviae; M. synoviae; broth-dilution microtiter; read-out: MIC
Method: as §2

[3] = system: Pasteurella multocida 17E; assay: MIC, broth-dilution microtiter test (Table VII); settings: Pasteurella multocida; P. multocida 17E, bovine isolate; broth-dilution microtiter; read-out: MIC
Method in brief: (§3)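 Broth microdilution, run as a conventional microtiter test, supplied MICs for the gram-positive S. aureus and the Pasteurella isolates. Enterobacter data instead rest on a standard agar-dilution procedure.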

[4] = system: Pasteurella multocida 22A; assay: MIC, broth-dilution microtiter test (Table VII); settings: Pasteurella multocida
Method in brief: as §3

[5] = system: Pasteurella multocida 68C; assay: MIC, broth-dilution microtiter test (Table VII); settings: Pasteurella multocida; P. multocida 68C; broth-dilution microtiter; read-out: MIC
Method in brief: as §3

[6] = system: Pasteurella multocida 60A; assay: MIC, broth-dilution microtiter test (Table VII); settings: Pasteurella multocida; P. multocida 60A, avian isolate; broth-dilution microtiter; read-out: MIC
Method in brief: as §3

Staphylococcus aureus = assay: MIC, broth-dilution microtiter test (Table VII); settings: Staphylococcus aureus; S. aureus; broth-dilution microtiter; read-out: MIC
Method in brief: as §3

[7] = system: Pasteurella hemolytica 41D; assay: MIC, broth-dilution microtiter test (Table VII); settings: Pasteurella, P. hemolytica 41D, read-out: MIC
Method in brief: as §1

[8] = system: Streptococcus pneumoniae Park I; assay: microbe, parasite or virus in culture; settings: Streptococcus pneumoniae; read-out: MIC
Method: as §2

[9] = system: Pseudomonas aeruginosa X528; assay: MIC, standard agar-dilution assay (Table VI)
Method: as §2

Salmonella typhi 1335 = assay: MIC, standard agar-dilution assay (Table VI); settings: Salmonella enterica
Method: as §2

Serratia marcescens SE3 = assay: MIC, standard agar-dilution assay (Table VI)
Method: as §2

[10] = system: Pseudomonas aeruginosa Ps18; assay: MIC, standard agar-dilution assay (Table VI)
Method: as §2

[11] = system: Pseudomonas aeruginosa X239; assay: MIC, standard agar-dilution assay (Table VI)
Method: as §2

Serratia marcescens X99 = assay: MIC, standard agar-dilution assay (Table VI)
Method: as §2

[12] = system: Enterobacter aerogenes C32; assay: MIC, standard agar-dilution assay (Table VI); settings: Klebsiella aerogenes
Method: as §2

[13] = system: Klebsiella pneumoniae X68; assay: MIC, standard agar-dilution assay (Table VI)
Method: as §2

Proteus rettgeri C24 = assay: MIC, standard agar-dilution assay (Table VI); settings: Providencia rettgeri, P. rettgeri C24
Method: as §2

Proteus morganii PR15 = assay: MIC, standard agar-dilution assay (Table VI); settings: Morganella morganii, PR15
Method: as §2

[14] = system: Enterobacter aerogenes EB17; assay: MIC, standard agar-dilution assay (Table VI); settings: Klebsiella aerogenes
Method: as §2

Proteus inconstans PR33 = assay: MIC, standard agar-dilution assay (Table VI); settings: Providencia alcalifaciens
Method: as §2

Proteus rettgeri PR7 = assay: MIC, standard agar-dilution assay (Table VI); settings: Providencia rettgeri
Method: as §2

[15] = system: Salmonella heidelberg X514; assay: MIC, standard agar-dilution assay (Table VI); settings: Salmonella enterica
Method: as §2

[16] = system: Citrobacter freundii CF17; assay: MIC, standard agar-dilution assay (Table VI)
Method: as §2

Enterobacter cloacae EB5 = assay: MIC, standard agar-dilution assay (Table VI)
Method: as §2

[17] = system: Staphylococcus aureus X400; assay: MIC, standard agar-dilution assay (Table V); settings: Staphylococcus aureus, X400
Method: as §2

Escherichia coli N10 = assay: MIC, standard agar-dilution assay (Table V); settings: Escherichia coli, N10
Method in brief: as §1

[18] = system: Staphylococcus aureus V41; assay: MIC, standard agar-dilution assay (Table V); settings: Staphylococcus aureus, V41
Method: as §2

[19] = system: Staphylococcus epidermidis EPI1; assay: MIC, standard agar-dilution assay (Table V); settings: Staphylococcus epidermidis
Method: as §2

[20] = system: Staphylococcus epidermidis EPI2; assay: MIC, standard agar-dilution assay (Table V); settings: Staphylococcus epidermidis
Method: as §2

[21] = system: Klebsiella pneumoniae KAE; assay: MIC, standard agar-dilution assay (Table V); settings: Klebsiella pneumoniae
Method in brief: as §1

Escherichia coli EC14 = assay: MIC, standard agar-dilution assay (Table V); settings: Escherichia coli; E. coli EC14; agar dilution; read-out: MIC
Method in brief: as §1

Streptococcus Group 9960 = assay: MIC, standard agar-dilution assay (Table V); settings: GROUP9960
Method: as §2

[22] = system: Staphylococcus aureus X1.1; assay: MIC, standard agar-dilution assay (Table V); settings: Staphylococcus aureus, X1.1
Method: as §2

Shigella sonnei N9 = assay: MIC, standard agar-dilution assay (Table V)
Method in brief: as §1

[23] = system: Staphylococcus aureus S13E; assay: MIC, standard agar-dilution assay (Table V); settings: Staphylococcus aureus, S13E
Method: as §2

[24] = system: Streptococcus Group D X66; assay: MIC, standard agar-dilution assay (Table V)
Method: as §2

[25] = system: Klebsiella pneumoniae X26; assay: MIC, standard agar-dilution assay (Table V); settings: Klebsiella pneumoniae, X26
Method: as §2

Structure (SMILES)	MIC [1] [mg/L]	MIC [2] [mg/L]	MIC (Streptococcus sp. 80) [mg/L]	MIC (Mycoplasma synoviae) [mg/L]	MIC [3] [mg/L]	MIC [5] [mg/L]	MIC [6] [mg/L]	MIC (Staphylococcus aureus) [mg/L]	MIC [7] [mg/L]	MIC [8] [mg/L]	MIC (Salmonella typhi 1335) [mg/L]	MIC (Proteus rettgeri C24) [mg/L]	MIC (Proteus morganii PR15) [mg/L]	MIC [17] [mg/L]	MIC (Escherichia coli N10) [mg/L]	MIC [18] [mg/L]	MIC (Escherichia coli EC14) [mg/L]	MIC (Streptococcus Group 9960) [mg/L]	MIC [22] [mg/L]	MIC (Shigella sonnei N9) [mg/L]	further results
CCC1OC(=O)CC(O)C(C)C(OC2OC(C)C(O)C(N(C)C)C2O)C(CC=O)CC(C)C(=O)C=CC(C)=CC1CSC(C)=O (centres unmarked) [Compound 7, 23-Deoxy-23-(acetyl)thio-OMT]	6.25 (≈ 9.53 µM)	6.25 (≈ 9.53 µM)	0.39 (≈ 0.595 µM)	≤ 0.05	3.12 (≈ 4.76 µM)	1.56 (≈ 2.38 µM)	3.12 (≈ 4.76 µM)	0.39 (≈ 0.595 µM)	6.25 (≈ 9.53 µM)	0.06 (≈ 0.0915 µM)	> 128	64 (≈ 97.6 µM)	> 128	0.25 (≈ 0.381 µM)	64 (≈ 97.6 µM)	0.25 (≈ 0.381 µM)	64 (≈ 97.6 µM)	0.25 (≈ 0.381 µM)	0.25 (≈ 0.381 µM)	64 (≈ 97.6 µM)	MIC ([4]; P. multocida 22A, broth-dilution microtiter, read-out: MIC): 1.56 mg/L (≈ 2.38 µM); MIC ([9]; P. aeruginosa X528, agar dilution, read-out: MIC): 32 mg/L (≈ 48.8 µM); MIC (Serratia marcescens SE3; SE3): > 128 mg/L; MIC ([10]; PS18): > 128 mg/L; MIC ([11]; X239): > 128 mg/L; MIC (Serratia marcescens X99; X99): > 128 mg/L; MIC ([12]; C32): > 128 mg/L; MIC ([13]; X68): > 128 mg/L; MIC ([14]; EB17): > 128 mg/L; MIC (Proteus inconstans PR33; PR33): > 128 mg/L; MIC (Proteus rettgeri PR7; PR7): > 128 mg/L; MIC ([15]; X514): > 128 mg/L; MIC ([16]; CF17): > 128 mg/L; MIC (Enterobacter cloacae EB5; EB5): > 128 mg/L; MIC ([19]; EPI1): 0.125 mg/L (≈ 0.191 µM); MIC ([20]; EPI2): 0.125 mg/L (≈ 0.191 µM); MIC [21]: > 128 mg/L; MIC [23]: 0.125 mg/L (≈ 0.191 µM); MIC ([24]; Streptococcus Group D X66, agar dilution, read-out: MIC): 0.5 mg/L (≈ 0.762 µM); MIC [25]: 4 mg/L (≈ 6.1 µM)
CCC1OC(=O)CC(O)C(C)C(OC2OC(C)C(O)C(N(C)C)C2O)C(CC=O)CC(C)C(=O)C=CC(C)=CC1CSc1nnc(C)s1 (centres unmarked) [Compound 3, 23-Deoxy-23-(5-methyl-1,3,4-thiadiazol-2-yl)thio-OMT]	6.25 (≈ 8.78 µM)	12.5 (≈ 17.6 µM)	0.39 (≈ 0.548 µM)	0.39 (≈ 0.548 µM)	6.25 (≈ 8.78 µM)	6.25 (≈ 8.78 µM)	6.25 (≈ 8.78 µM)	0.78 (≈ 1.1 µM)	6.25 (≈ 8.78 µM)	0.06 (≈ 0.0843 µM)	> 128	64 (≈ 89.9 µM)	64 (≈ 89.9 µM)	0.25 (≈ 0.351 µM)	64 (≈ 89.9 µM)	0.25 (≈ 0.351 µM)	64 (≈ 89.9 µM)	0.25 (≈ 0.351 µM)	0.25 (≈ 0.351 µM)	64 (≈ 89.9 µM)	MIC ([4]; 22A): 3.12 mg/L (≈ 4.38 µM); MIC ([9]; X528): 64 mg/L (≈ 89.9 µM); MIC (Serratia marcescens SE3; S. marcescens SE3, agar dilution, read-out: MIC): > 128 mg/L; MIC ([10]; P. aeruginosa Ps18, agar dilution, read-out: MIC): > 128 mg/L; MIC ([11]; P. aeruginosa X239, agar dilution, read-out: MIC): > 128 mg/L; MIC (Serratia marcescens X99; S. marcescens X99, agar dilution, read-out: MIC): > 128 mg/L; MIC ([12]; E. aerogenes C32, agar dilution, read-out: MIC): > 128 mg/L; MIC ([13]; K. pneumoniae X68, agar dilution, read-out: MIC): > 128 mg/L; MIC ([14]; E. aerogenes EB17, agar dilution, read-out: MIC): > 128 mg/L; MIC (Proteus inconstans PR33; P. inconstans PR33, agar dilution, read-out: MIC): > 128 mg/L; MIC (Proteus rettgeri PR7; P. rettgeri PR7, agar dilution, read-out: MIC): 64 mg/L (≈ 89.9 µM); MIC ([15]; S. heidelberg X514, agar dilution, read-out: MIC): > 128 mg/L; MIC ([16]; C. freundii CF17, agar dilution, read-out: MIC): > 128 mg/L; MIC (Enterobacter cloacae EB5; E. cloacae EB5, agar dilution, read-out: MIC): > 128 mg/L; MIC ([19]; S. epidermidis EPI1, agar dilution, read-out: MIC): 0.125 mg/L (≈ 0.176 µM); MIC ([20]; S. epidermidis EPI2, agar dilution, read-out: MIC): 0.25 mg/L (≈ 0.351 µM); MIC ([21]; K. pneumoniae KAE, agar dilution, read-out: MIC): > 128 mg/L; MIC [23]: 0.25 mg/L (≈ 0.351 µM); MIC [24]: 0.25 mg/L (≈ 0.351 µM); MIC [25]: 4 mg/L (≈ 5.62 µM)
